What is called Ki is the equilibrium dissociation constant of an inhibitor or competing ligand from its target.

Experiment [1] concerns HEK 293T cells infected with HIV-VSVg. Type of experiment: cell-based.
In the next experiment the target is ML-IAP (Homo sapiens (Human), UniProt Q96CA5). The experiment in a line: ML-IAP Ki. The format is binding. The conditions noted are these: Table B-1.
The next experiment concerns the target XIAP BIR1/2 (Homo sapiens (Human), UniProt P98170). The experiment in a line: XIAP BIR1/2 Ki. The format is binding. As to conditions: Table B-1.
For another experiment, the target named is XIAP BIR3 (Homo sapiens (Human), UniProt P98170). The experiment in a line: XIAP BIR3 Ki. The format is binding. The conditions noted are these: Table B-1.
For experiment [2], the system named is latently infected JLat 10.6 cells. As to conditions: for Activation of HIV transcription, combination versus components alone: in combination with Compound 35, 24 hours.
In experiment [3] the test system is Latently infected Jurkat JLat 10.6 cells. As to conditions: HDAC inhibitor in combination with Compound 35, 36 hours, normalized against background of HDAC inhibitor alone.

XIAP BIR1/2, sequence (P98170 1-240): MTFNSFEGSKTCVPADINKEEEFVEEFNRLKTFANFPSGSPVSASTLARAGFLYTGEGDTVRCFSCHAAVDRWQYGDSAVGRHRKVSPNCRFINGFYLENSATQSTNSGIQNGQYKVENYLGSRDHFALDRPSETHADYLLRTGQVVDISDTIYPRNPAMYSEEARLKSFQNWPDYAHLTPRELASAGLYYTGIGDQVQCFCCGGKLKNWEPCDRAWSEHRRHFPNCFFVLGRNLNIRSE
XIAP BIR3, sequence (P98170 241-356): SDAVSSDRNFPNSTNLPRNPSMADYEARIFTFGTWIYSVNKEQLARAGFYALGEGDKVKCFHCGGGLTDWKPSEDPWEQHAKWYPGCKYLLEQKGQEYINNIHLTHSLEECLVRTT
ML-IAP, sequence (Q96CA5 whole entry): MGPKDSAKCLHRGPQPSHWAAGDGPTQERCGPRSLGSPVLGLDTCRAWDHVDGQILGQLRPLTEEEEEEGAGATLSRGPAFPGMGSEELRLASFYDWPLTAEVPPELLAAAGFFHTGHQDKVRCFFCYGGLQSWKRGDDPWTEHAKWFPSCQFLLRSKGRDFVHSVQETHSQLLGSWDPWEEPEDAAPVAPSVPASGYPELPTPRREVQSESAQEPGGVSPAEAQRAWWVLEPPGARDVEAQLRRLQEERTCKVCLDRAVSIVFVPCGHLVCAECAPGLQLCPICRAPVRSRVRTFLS

With `CN[C@@H](C)C(=O)N[C@H]1CCS[C@H]2CC(C)(C)C(C(=O)N[C@@H]3CCCc4ccccc43)N2C1=O` (stereo partly drawn) [Compound 35], the “Viral gene transcription as measured by luciferase expression” value in experiment [1] is “enhancement of viral gene transcription, as measured by luciferase expression, was proportional to the loss of BIRC2/cIAP1 protein”. Also, the Ki on ML-IAP, at XIAP BIR1/2 and on XIAP BIR3 was at most 25 µM throughout. The “Reactivation of latent HIV (GFP reporter expression)” value in experiment [2] (single agent, 24 hours) was “caused reactivation of HIV”.
In the case of `CC(=O)NCCCCCCNC(C)=O` [HMBA, hexamethylbisacetamide], the “Activation of HIV transcription, combination versus components alone” value in experiment [2] is “greater effect than treatment with any of the components alone”.
As to `O=C(CCCCCCC(=O)Nc1ccccc1)NO` [Vorinostat, vorinostat], the “Activation of HIV transcription, combination versus components alone” value in experiment [2] was “greater effect than treatment with any of the components alone”. In experiment [3], the “Group: increase of GFP+ cells” value is listed as “A (A 0-25%)”.
On to `Cc1[nH]c2ccccc2c1CCNCc1ccc(/C=C/C(=O)NO)cc1` [Panobinostat, panobinostat], for which the “Activation of HIV transcription, combination versus components alone” value in experiment [2] was “greater effect than treatment with any of the components alone”.

These data come from patent US10300074B2, “Use of inhibitor of apoptosis protein (IAP) antagonists in HIV therapy” (Sanford-Burnham Medical Research Institute, priority 2014, dated 2019).
